This is an account of results in ChEMBL document CHEMBL1150904, “Cytotoxic isoflavans from Eysenhardtia polystachya” (1998).

One experiment has as its system KB. Kind of experiment: Cytotoxicity against human KB cells after 72 hrs. Type of experiment: functional. The following applies: read-out: ED50 (the source's name).
In another experiment the test system is Spodoptera frugiperda. Kind of experiment: Insecticidal activity against Spodoptera frugiperda. It counts as functional.

Each structure is given as a SMILES string. Values after ≈ are worked out from the molar mass of the structure shown.

Take `CC[C@H](/C=C/[C@@H](C)[C@H]1CC[C@H]2[C@@H]3CC=C4C[C@@H](O)CC[C@]4(C)[C@H]3CC[C@]12C)C(C)C` [STIGMASTEROL]: the EC50 in the experiment with KB is greater than 4 µg/mL.

`COc1ccc2c(c1OC)OC[C@H]1c3cc4c(cc3O[C@@H]21)OCO4`: the EC50 with KB is greater than 4 µg/mL. In the case of `COc1cc([C@H]2COc3c(ccc(O)c3OC)C2)c(OC)c(O)c1OC`, the EC50 in the experiment with KB is 3 µg/mL (≈ 8.28 µM). In addition, the LC50 in the experiment on Spodoptera frugiperda is greater than 1000 ng/cm2. On the same counts, the results for `COc1ccc(C2COc3c(ccc(O)c3OC)C2)c(O)c1OC` (stereo not given) [ISODUARTIN] are 2.63 µg/mL (≈ 7.91 µM) and greater than 1000 ng/cm2. Turning to `COc1cc2c(cc1-c1coc3cc(O)ccc3c1=O)OCO2` [CUNEATIN], the EC50 in the experiment with KB is greater than 4 µg/mL. Take `COc1cc(OC)c(-c2coc3cc(O)ccc3c2=O)cc1OC`: in the experiment on KB, the EC50 is greater than 4 µg/mL.

With `COc1cc([C@H]2COc3c(ccc(O)c3OC)C2)c(OC)c(OC)c1OC`, in the experiment on KB, the EC50 was 3.8 µg/mL (≈ 10.1 µM). Moreover, the LC50 with Spodoptera frugiperda is listed as greater than 1000 ng/cm2.
